# Entries after “also recorded” stand apart in the source; their conditions may differ.
# B1: ligand binding domain (LBD) of the chemoreceptor PA2652 (domain or fragment, Pseudomonas aeruginosa PAO1, UniProt Q9I0I6 34-205, looked up)
# chain: KKQADAEVKDTRERLLGDRRAELEHYVQIAMGSIQAEYDRSANGDLNARAEAIARLSKIKYGKDGYIFGYDSQVVRLFRGDSPVDVGKSFRDRRDPSGVYLNRELVEAGRNGSHYVTYTSPLPGNESVMVPKLSYTLYLPKWDMVIGSAINLDGVEAQLVEIKQDIDERIGT
# notes: No removal of the tag is described; this is surmised; also called PA2652-LBD
# What was measured:
# PA2652-LBD [1] = molecular target: T1, PA2652-LBD (Pseudomonas aeruginosa, UniProt Q9I0I6); type: binding, Pseudomonas aeruginosa PAO1; details: for Tm increases: DSF screening as described in text, 2 °C threshold for significant hits; for Tm Shift: Biolog arrays PM1, PM2A, PM3b, PM4a, PM5, relative to ligand-free protein Tm 45.5 °C
# T1 construct: The DNA fragment encoding the LBD of PA2652 (Lys^34–Thr^205) was amplified; His-tag (vector-encoded by pET28b(+) via NdeI site); made in house; host or cells: Escherichia coli BL21 (DE3)
# Text: To identify ligands that may bind to the LBD of PA2652, we conducted Differential Scanning Fluorimetry (DSF) based high throughput ligand screening assays as described previously[37],[38]. DSF analyses permit the determination of melting temperature (Tm) values, which corresponds to the temperature at which half the protein is in its native conformation whereas the remaining half has undergone thermal unfolding. Since ligand binding typically enhances the thermal stability of proteins, increases in the Tm in the presence of ligands may be indicative of specific binding. We screened 450 different compounds available in five different ligand arrays from Biolog (Supplementary Fig. S3). The screened collection included different carbon and nitrogen sources, phosphorous and sulfurous compounds as well as different nutrient supplements.
# Thermal shift assays were performed on a MyIQ2 Real-Time PCR instrument (BioRad). Ligands from the different compound arrays (Biolog, Hayward, CA, USA; see Supplementary Fig. S3) were dissolved in 50 μl of MilliQ water, which, according to the manufacturer, corresponds to a concentration of 10–20 mM. Screening was performed using 96 wells plates. Each well contained 20 μM of protein dialyzed into TNG buffer (20 mM Tris/HCl, 150 mM NaCl, 10% (v/v) glycerol, pH 6.7), 2.5 μl of the resuspended compounds and SYPRO Orange (Life Technologies) at 5× concentration. In a single well (ligand free protein) the compound was substituted by water. Samples were heated from 23 °C to 85 °C at a scan rate of 1 °C/min. The protein unfolding curves were obtained by following the changes in SYPRO Orange fluorescence. Melting temperatures were determined using the first derivative values from the raw fluorescence data.
# PA2652-LBD [2] = molecular target: T1, PA2652-LBD; experiment: biochemical; type: binding, Pseudomonas aeruginosa PAO1; details: for Binding in ITC: YES/NO
# Experimental: To unambiguously determine ligand binding, we conducted Isothermal Titration Calorimetry (ITC)[40] binding studies with the purified protein.
# Experiments were conducted on a VP-microcalorimeter (Microcal, Amherst, MA, USA) at 20 °C. PA2652-LBD was dialyzed overnight against TNG buffer, adjusted to a concentration of 20–35 μM and placed into the sample cell of the instrument. The protein was titrated by the injection of 9.6–14.4 μl aliquots of 1–20 mM ligand solutions that were prepared in TNG buffer (20 mM Tris/HCl, 150 mM NaCl, 10% (v/v) glycerol, pH 6.8) immediately before use. The mean enthalpies measured from the injection of ligands into buffer were subtracted from raw titration data prior to data analysis with the MicroCal version of ORIGIN. Data were fitted with the “One binding site model”.
# [3] = tested on: Pseudomonas aeruginosa PAO1 (wt and PA2652 mutant); experiment: Growth experiments with ligands as sole carbon source; type: cell-based; details: M9 minimal medium, 10 mM carbon source
# Text: To evaluate the physiological relevance of the ligands identified, we first addressed the question of whether they could support bacterial growth as sole carbon source. To this end, we conducted growth experiments of the wild type (wt) strain and a mutant defective in PA2652 in minimal medium supplemented with the different ligands as sole carbon sources.
# Bacterial strains used in this study are listed in Supplementary Table S3. Pseudomonas aeruginosa PAO1 and its derivative strains were routinely grown at 37 °C in Luria Broth (LB; 5 g yeast extract l^−1, 10 g Bacto tryptone l^−1 and 5 g NaCl l^−1) or M9 medium supplemented with 1 mM MgSO4, 6 mg l^−1 Fe-citrate, trace elements[81] and 15 mM glucose as carbon source. For growth experiments to assess the capacity of PA2652-LBD ligands to support growth a sole C-source, PAO1 cells were pre-cultured overnight in M9 medium supplemented with 10 mM glucose and washed twice with M9 medium salts, prior to the inoculation of M9 medium containing10 mM of the different carbon sources. When necessary, the pH of the medium was adjusted to 7.0 prior to inoculation. Bacterial growth over the time was monitored using Bioscreen Microbiological Growth Analyser (Oy Growth Curves Ab Ltd, Helsinki, Finland). Escherichia coli strains were grown at 37 °C in LB. Escherichia coli DH5α was used as a host for gene cloning. When appropriate, antibiotics were used at the following final concentrations (in µg ml^−1): kanamycin, 25 (E. coli strains) and 100 (Pseudomonas strains); tetracycline, 40.
# [4] = tested on: Pseudomonas aeruginosa PAO1; experiment: Quantitative capillary chemotaxis assay, wild type; type: cell-based; details: for Role of PA2652 ligand (chemoattractant or antagonist): authors' classification from chemotaxis results; for Concentration of maximum chemotactic response / Chemotactic response: wt PAO1; for Chemotactic response: ligands at 10 µM to 100 mM
# Experimental: Secondly, we assessed the capacity of the ligands identified to induce chemotaxis. To this end, we carried out quantitative capillary chemotaxis assays using the wt strain and PA2652 ligands at concentrations ranging from 10 µM to 100 mM.
# Overnight cultures of P. aeruginosa strains were diluted to an OD660 of 0.05 in MS medium (30 mM Na2HPO4, 20 mM KH2PO4, 25 mM NH4NO3, 1 mM MgSO4) supplemented with 6 mg l^−1 Fe-citrate, trace elements[81] and 15 mM glucose as carbon source, and grown at 37 °C with orbital shaking (200 rpm). At an OD660 of 0.4 ([…]) cultures were centrifuged at 1,700 × g for 5 min and the resulting pellet was washed twice with chemotaxis buffer (50 mM potassium phosphate, […], 0.05% (v/v) glycerol, pH 7.0). Subsequently, the cells were resuspended in the same buffer, adjusted to an OD660 of 0.1 and 230 µl aliquots of the bacterial cultures were placed into 96-well plates. For the quantitative assays, one-microliter capillary tubes (Microcaps, Drummond Scientific, Ref. P1424) were heat-sealed at one end and filled with either the chemotaxis buffer (negative control) or chemotaxis buffer containing the chemoeffectors to test. The capillaries were immersed into the bacterial suspensions at its open end. After 30 min at room temperature, capillaries were removed from the bacterial suspensions, rinsed with sterile water and the content expelled into 1 ml of M9 medium salts. Serial dilutions were plated onto M9 minimal medium (containing the appropriate antibiotics) supplemented with 15 mM glucose as carbon source. The number of colony forming units was determined after overnight incubation. In all cases, data were corrected with the number of cells that swam into buffer containing capillaries.
# [5] = tested on: Pseudomonas aeruginosa PAO1; experiment: Capillary chemotaxis assay in presence of antagonists; type: cell-based; details: for Effect of antagonist on chemotaxis toward L-alanine: 1 mM L-alanine, 20 or 40 mM antagonist; for Effect of antagonist on chemotaxis toward L-malic acid: 1 mM L-malic acid, 10, 20 and 40 mM antagonist in suspension and capillary
# Experimental: To this end we conducted chemotaxis assays toward L-malic acid in the absence or presence of 10, 20 and 40 mM of citraconic and D,L-methylsuccinic acids (that were added to both, the bacterial suspension and the chemoattractant solution). […] To verify whether the presence of antagonists may have a global inhibitory effect on the chemotactic properties of P. aeruginosa we performed assays toward L-alanine, a chemoattractant recognized by the receptors PctA and PctB[15], in the presence antagonists.
# To determine the effect of antagonists in the chemotactic properties of PAO1, the assay was performed as previously described with two minor modifications: (i) Capillary tubes were filled with chemotaxis buffer containing 1 mM of the chemoattractants (L-malic acid or L-alanine) and 10–40 mM of the antagonists (methylsuccinic or citraconic acids); (ii) Bacterial cultures were washed with chemotaxis buffer and cells were finally resuspended in the same buffer but containing equimolar concentrations of methylsuccinic/citraconic acids to those present in the capillary tubes.
# [6] = molecular target: the molecule itself; experiment: AUC; sedimentation velocity, ligand-free protein at 5-20 uM, 48 000 rpm, 7 °C, 20 mM PIPES pH 7.0
molecule,measurement,setting,value
"O=C(O)CC(Br)C(=O)O (racemic) [D,L-bromosuccinic acid]",Tm increases,PA2652-LBD [1],more than 2 °C
same,Kd,PA2652-LBD [2],1240 ± 700 µM
same,Binding in ITC,PA2652-LBD [2],YES
same,Ability to support bacterial growth as sole carbon source,[3],poorly supported bacterial growth
same,Role of PA2652 ligand (chemoattractant or antagonist),[4],chemoattractants
same,Concentration of maximum chemotactic response,[4],10 mM
same,Chemotactic response,[4],Significant responses; also recorded: significant chemotaxis
"CC(O)(CC(=O)O)C(=O)O (racemic) [D,L-citramalic acid]",Tm increases,PA2652-LBD [1],hits
same,Kd,PA2652-LBD [2],61 ± 4 µM
same,Binding in ITC,PA2652-LBD [2],YES
same,Ability to support bacterial growth as sole carbon source,[3],able to efficiently sustain growth
same,Concentration of maximum chemotactic response,[4],10 mM
same,Chemotactic response,[4],Significant responses; also recorded: significant chemotaxis
"CC(CC(=O)O)C(=O)O (racemic) [D,L-methylsuccinic acid]",Kd,PA2652-LBD [2],224 ± 10 µM
same,Binding to PA2652-LBD in ITC (in words),PA2652-LBD [2],detection of binding
same,Binding in ITC,PA2652-LBD [2],YES
same,Ability to support bacterial growth as sole carbon source,[3],able to efficiently sustain growth
same,Chemotactic response,[4],Minor but statistically significant responses
same,Chemotactic response,[4]; listed as methylsuccinic acid,very minor responses
same,Effect of antagonist on chemotaxis toward L-alanine,[5],did not significantly alter the chemotaxis
same,Effect of antagonist on chemotaxis toward L-malic acid,[5],reduced the chemotaxis toward L-malic acid
C[C@@](O)(CC(=O)O)C(=O)O [D-citramalic acid],Binding to PA2652-LBD in ITC (in words),PA2652-LBD [2],no binding was observed
O=C(O)C[C@@H](O)C(=O)O [D-malic acid],Tm Shift,PA2652-LBD [1],No significant shift
same,Tm increases,PA2652-LBD [1],did not cause significant increases
same,Binding to PA2652-LBD in ITC (in words),PA2652-LBD [2],did not show binding; also recorded: No binding
C[C@H](CC(=O)O)C(=O)O [D-methylsuccinic acid],Binding to PA2652-LBD in ITC (in words),PA2652-LBD [2],no binding was observed
O=C(O)/C=C/C(=O)O [Fumaric acid],Tm Shift,PA2652-LBD [1],No significant shift
same,Binding to PA2652-LBD in ITC (in words),PA2652-LBD [2],No binding
same,Binding to PA2652-LBD in ITC (in words),PA2652-LBD [2]; listed as fumaric acid,absence of binding
O=C(O)CCCC(=O)O [Glutaric acid],Tm Shift,PA2652-LBD [1],No significant shift
N[C@@H](CC(=O)O)C(=O)O [L-Aspartic acid],Tm Shift,PA2652-LBD [1],No significant shift
same,Binding to PA2652-LBD in ITC (in words),PA2652-LBD [2]; listed as L-aminosuccinic acid,No binding
same,Binding to PA2652-LBD in ITC (in words),PA2652-LBD [2]; listed as aminosuccinic acid,absence of binding
C[C@](O)(CC(=O)O)C(=O)O [L-citramalic acid],Role of PA2652 ligand (chemoattractant or antagonist),[4],chemoattractants
C[C@@H](CC(=O)O)C(=O)O [L-methylsuccinic acid],Role of PA2652 ligand (chemoattractant or antagonist),[4],antagonists
O=C(O)[C@H](O)[C@@H](O)C(=O)O [L-tartaric acid],Tm Shift,PA2652-LBD [1],No significant shift
same,Binding to PA2652-LBD in ITC (in words),PA2652-LBD [2],No binding
same,Binding to PA2652-LBD in ITC (in words),PA2652-LBD [2]; listed as tartaric acid,absence of binding
C[C@@H](O)[C@H](N)C(=O)O [L-threonine],Tm Shift,PA2652-LBD [1],No significant shift
same,Binding to PA2652-LBD in ITC (in words),PA2652-LBD [2],No binding
O=C(O)CC(=O)C(=O)O [Oxaloacetic acid],Tm Shift,PA2652-LBD [1],No significant shift
same,Binding to PA2652-LBD in ITC (in words),PA2652-LBD [2],No binding
same,Binding to PA2652-LBD in ITC (in words),PA2652-LBD [2]; listed as oxalacetic acid,absence of binding
O=C(O)CCC(=O)O [Succinic acid],Tm Shift,PA2652-LBD [1],No significant shift
same,Binding to PA2652-LBD in ITC (in words),PA2652-LBD [2],No binding
same,Binding to PA2652-LBD in ITC (in words),PA2652-LBD [2]; listed as succinic acid,absence of binding
C/C(=C/C(=O)O)C(=O)O [citraconic acid],Tm increases,PA2652-LBD [1],hits
same,Kd,PA2652-LBD [2],210 ± 15 µM
same,Binding in ITC,PA2652-LBD [2],YES
same,Ability to support bacterial growth as sole carbon source,[3],could not be used as sole carbon source
same,Role of PA2652 ligand (chemoattractant or antagonist),[4],antagonists
same,Chemotactic response,[4],did not cause any chemotactic response and no
same,Effect of antagonist on chemotaxis toward L-alanine,[5],did not significantly alter the chemotaxis
same,Effect of antagonist on chemotaxis toward L-malic acid,[5],reduced the chemotaxis toward L-malic acid
B1,stoichiometry N,[6],2

# Source: publication PMC5795001, “The activity of the C4-dicarboxylic acid chemoreceptor of Pseudomonas aeruginosa is controlled by chemoattractants and antagonists” (Scientific Reports, 2018)
